Data: the NIST ThermoML archive (doi:10.1021/acs.jced.7b00106)

Details: Hot wire method

FC(F)(F)/C=C/Cl [(E)-1-chloro-3,3,3-trifluoroprop-1-ene]
Details	thermal conductivity [W/m/K]
334.63 K, 179 kPa, Gas	0.01343
334.73 K, 328 kPa, Gas	0.01333
334.82 K, 112 kPa, Gas	0.01357
334.91 K, 97 kPa, Gas	0.01369
334.92 K, 253 kPa, Gas	0.0134
335.16 K, 178 kPa, Gas	0.01354
335.37 K, 112 kPa, Gas	0.01364
335.44 K, 97 kPa, Gas	0.01368
335.71 K, 176 kPa, Gas	0.01352
336 K, 98 kPa, Gas	0.01372
336.29 K, 176 kPa, Gas	0.01354
341.04 K, 7818 kPa, Liquid	0.07607
341.05 K, 502 kPa, Liquid	0.07132
341.06 K, 4000 kPa, Liquid	0.07359
341.11 K, 4008 kPa, Liquid	0.07339
341.11 K, 7812 kPa, Liquid	0.07571
341.12 K, 503 kPa, Liquid	0.07103
341.12 K, 34293 kPa, Liquid	0.08893
341.19 K, 34283 kPa, Liquid	0.08864
341.28 K, 19052 kPa, Liquid	0.08179
341.29 K, 26074 kPa, Liquid	0.08503
341.35 K, 19044 kPa, Liquid	0.08181
341.36 K, 12813 kPa, Liquid	0.07865
341.37 K, 26069 kPa, Liquid	0.08479
341.4 K, 7815 kPa, Liquid	0.07567
341.42 K, 3996 kPa, Liquid	0.0734
341.44 K, 510 kPa, Liquid	0.07095
341.44 K, 12800 kPa, Liquid	0.07849
341.47 K, 114 kPa, Gas	0.01391
341.48 K, 7806 kPa, Liquid	0.07567
341.5 K, 113 kPa, Gas	0.01391
341.5 K, 182 kPa, Gas	0.01442
341.5 K, 4008 kPa, Liquid	0.07332
341.53 K, 498 kPa, Liquid	0.07081
341.53 K, 53967 kPa, Liquid	0.09634
341.54 K, 65483 kPa, Liquid	0.1004
341.56 K, 117 kPa, Gas	0.01424
341.57 K, 34287 kPa, Liquid	0.08857
341.61 K, 65470 kPa, Liquid	0.1001
341.62 K, 53976 kPa, Liquid	0.09608
341.73 K, 464 kPa, Gas	0.01417
341.74 K, 113 kPa, Gas	0.01377
341.74 K, 256 kPa, Gas	0.01435
341.76 K, 26067 kPa, Liquid	0.08459
341.77 K, 19040 kPa, Liquid	0.08164
341.78 K, 181 kPa, Gas	0.01434
341.79 K, 114 kPa, Gas	0.0139
341.8 K, 177 kPa, Gas	0.01425
341.82 K, 7816 kPa, Liquid	0.0756
341.84 K, 117 kPa, Gas	0.01379
341.84 K, 465 kPa, Gas	0.01387
341.84 K, 4002 kPa, Liquid	0.07296
341.87 K, 26056 kPa, Liquid	0.08482
341.88 K, 116 kPa, Gas	0.01443
341.88 K, 490 kPa, Liquid	0.07091
341.88 K, 12799 kPa, Liquid	0.07857
341.88 K, 19048 kPa, Liquid	0.08151
341.91 K, 380 kPa, Gas	0.01419
341.92 K, 7805 kPa, Liquid	0.07534
341.96 K, 4010 kPa, Liquid	0.07316
341.98 K, 253 kPa, Gas	0.01421
341.99 K, 264 kPa, Gas	0.01423
341.99 K, 497 kPa, Liquid	0.07068
342 K, 113 kPa, Gas	0.01367
342.01 K, 464 kPa, Gas	0.0141
342.01 K, 65484 kPa, Liquid	0.1003
342.02 K, 53960 kPa, Liquid	0.09643
342.05 K, 176 kPa, Gas	0.01407
342.09 K, 117 kPa, Gas	0.01369
342.1 K, 180 kPa, Gas	0.01435
342.12 K, 465 kPa, Gas	0.01384
342.12 K, 34281 kPa, Liquid	0.08848
342.12 K, 65469 kPa, Liquid	0.09982
342.13 K, 113 kPa, Gas	0.01416
342.15 K, 367 kPa, Gas	0.01454
342.2 K, 116 kPa, Gas	0.01425
342.2 K, 377 kPa, Gas	0.01421
342.21 K, 43755 kPa, Liquid	0.09113
342.24 K, 251 kPa, Gas	0.01415
342.24 K, 34289 kPa, Liquid	0.08779
342.26 K, 113 kPa, Gas	0.01361
342.29 K, 7805 kPa, Liquid	0.07547
342.3 K, 262 kPa, Gas	0.01427
342.32 K, 4001 kPa, Liquid	0.07309
342.32 K, 26065 kPa, Liquid	0.08477
342.33 K, 176 kPa, Gas	0.01391
342.34 K, 464 kPa, Gas	0.0141
342.34 K, 19039 kPa, Liquid	0.08156
342.35 K, 118 kPa, Gas	0.01366
342.37 K, 497 kPa, Liquid	0.07069
342.4 K, 364 kPa, Gas	0.01446
342.43 K, 179 kPa, Gas	0.01433
342.43 K, 7788 kPa, Liquid	0.07522
342.45 K, 465 kPa, Gas	0.01403
342.47 K, 113 kPa, Gas	0.01424
342.47 K, 12801 kPa, Liquid	0.07827
342.48 K, 4008 kPa, Liquid	0.07289
342.49 K, 19031 kPa, Liquid	0.08119
342.51 K, 249 kPa, Gas	0.01404
342.52 K, 491 kPa, Liquid	0.07043
342.54 K, 114 kPa, Gas	0.0136
342.55 K, 117 kPa, Gas	0.01427
342.55 K, 375 kPa, Gas	0.01415
342.57 K, 65460 kPa, Liquid	0.1005
342.59 K, 175 kPa, Gas	0.01391
342.6 K, 53948 kPa, Liquid	0.09634
342.61 K, 12792 kPa, Liquid	0.07793
342.64 K, 119 kPa, Gas	0.01361
342.66 K, 260 kPa, Gas	0.01427
342.67 K, 362 kPa, Gas	0.01441
342.68 K, 43762 kPa, Liquid	0.09267
342.7 K, 464 kPa, Gas	0.01406
342.72 K, 65463 kPa, Liquid	0.09997
342.73 K, 34274 kPa, Liquid	0.08854
342.75 K, 53929 kPa, Liquid	0.09616
342.8 K, 178 kPa, Gas	0.01445
342.8 K, 247 kPa, Gas	0.01402
342.8 K, 465 kPa, Gas	0.01412
342.8 K, 7784 kPa, Liquid	0.07528
342.84 K, 43753 kPa, Liquid	0.09232
342.85 K, 113 kPa, Gas	0.01425
342.85 K, 114 kPa, Gas	0.01353
342.86 K, 4005 kPa, Liquid	0.07287
342.89 K, 173 kPa, Gas	0.01384
342.9 K, 34279 kPa, Liquid	0.08837
342.91 K, 372 kPa, Gas	0.01419
342.92 K, 488 kPa, Liquid	0.07046
342.93 K, 359 kPa, Gas	0.01446
342.94 K, 116 kPa, Gas	0.01437
342.95 K, 121 kPa, Gas	0.01352
343.03 K, 258 kPa, Gas	0.01427
343.07 K, 464 kPa, Gas	0.01408
343.08 K, 246 kPa, Gas	0.01404
343.12 K, 496 kPa, Liquid	0.06933
343.14 K, 26056 kPa, Liquid	0.08389
343.17 K, 65460 kPa, Liquid	0.09977
343.19 K, 19024 kPa, Liquid	0.08036
343.2 K, 178 kPa, Gas	0.01442
343.22 K, 357 kPa, Gas	0.01443
343.23 K, 53929 kPa, Liquid	0.09614
343.27 K, 113 kPa, Gas	0.01431
343.3 K, 370 kPa, Gas	0.01421
343.34 K, 43755 kPa, Liquid	0.09204
343.35 K, 117 kPa, Gas	0.01424
343.35 K, 12789 kPa, Liquid	0.07705
